Experimental data as given in patent US20100105655A1, “NOVEL COMPOUNDS 515” (ASTRAZENECA AB, priority 2008, published 2010).

Biological target: T1, IGFR kinase (Homo sapiens, UniProt P08069)
T1 construct: purchased Millipore
Assay: Enzyme assay (c), IGFR kinase, Caliper LabChip
Type: biochemical
Settings: 30 nM IGFR kinase, 6 uM ATP, 3 uM peptide mix; read-out: IGFR IC50

T1 sequence (P08069 31-1367): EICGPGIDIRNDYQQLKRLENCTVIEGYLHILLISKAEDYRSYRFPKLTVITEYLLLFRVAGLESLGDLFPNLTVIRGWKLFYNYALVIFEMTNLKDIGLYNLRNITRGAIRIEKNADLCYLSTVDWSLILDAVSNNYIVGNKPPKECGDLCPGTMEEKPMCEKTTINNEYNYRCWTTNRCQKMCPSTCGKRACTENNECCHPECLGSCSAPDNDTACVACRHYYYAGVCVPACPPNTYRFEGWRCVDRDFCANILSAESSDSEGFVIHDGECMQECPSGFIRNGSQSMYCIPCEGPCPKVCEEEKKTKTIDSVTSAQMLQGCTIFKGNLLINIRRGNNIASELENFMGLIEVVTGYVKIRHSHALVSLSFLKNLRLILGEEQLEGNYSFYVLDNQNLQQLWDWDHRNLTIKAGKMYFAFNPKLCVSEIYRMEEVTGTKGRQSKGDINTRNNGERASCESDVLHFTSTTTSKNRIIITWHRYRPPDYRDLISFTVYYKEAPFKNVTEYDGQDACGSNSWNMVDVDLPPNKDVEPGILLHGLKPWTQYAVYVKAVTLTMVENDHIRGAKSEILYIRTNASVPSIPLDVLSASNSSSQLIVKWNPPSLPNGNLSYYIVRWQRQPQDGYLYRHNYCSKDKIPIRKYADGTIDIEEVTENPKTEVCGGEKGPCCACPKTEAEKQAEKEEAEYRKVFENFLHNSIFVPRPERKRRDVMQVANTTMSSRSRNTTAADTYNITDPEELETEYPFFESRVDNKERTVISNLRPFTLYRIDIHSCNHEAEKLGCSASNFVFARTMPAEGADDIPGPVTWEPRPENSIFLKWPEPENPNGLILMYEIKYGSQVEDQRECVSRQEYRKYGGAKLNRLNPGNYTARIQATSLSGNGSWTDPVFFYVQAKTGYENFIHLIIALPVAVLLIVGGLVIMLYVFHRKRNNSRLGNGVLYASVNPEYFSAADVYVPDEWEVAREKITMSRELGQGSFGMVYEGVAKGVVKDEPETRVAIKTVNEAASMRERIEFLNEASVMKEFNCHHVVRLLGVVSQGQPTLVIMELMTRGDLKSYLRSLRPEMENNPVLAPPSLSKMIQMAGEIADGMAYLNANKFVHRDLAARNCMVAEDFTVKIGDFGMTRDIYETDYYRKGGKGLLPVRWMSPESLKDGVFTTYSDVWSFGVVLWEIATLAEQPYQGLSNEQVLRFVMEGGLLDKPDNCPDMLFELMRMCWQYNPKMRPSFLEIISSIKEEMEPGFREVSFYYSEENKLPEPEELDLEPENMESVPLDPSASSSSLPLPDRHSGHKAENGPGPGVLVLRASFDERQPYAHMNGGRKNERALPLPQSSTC

IC50 [nM]	SMILES
21	CCc1ccn2c(-c3nc(Nc4ccc(N5CCN(C(C)=O)CC5)cc4OC)ncc3Cl)cnc2c1 [Example 126.8, 1-[4-[4-[[5-chloro-4-(7-ethylimidazo[1,2-a]pyridin-3-yl)pyrimidin-2-yl]amino]-3-methoxyphenyl]piperazin-1-yl]ethanone]
17	COc1cc(N2CCNCC2)ccc1Nc1ncc(F)c(-c2cnn3ccccc23)n1 [Example 171, 5-fluoro-N-(2-methoxy-4-piperazin-1-yl-phenyl)-4-pyrazolo[1,5-a]pyridin-3-yl-pyrimidin-2-amine]
12	COc1cc(N2CCN(CCO)CC2)ccc1Nc1ncc(C)c(-c2cnc3ccc(F)cn23)n1 [Example 264, 2-[4-[4-[[4-(6-fluoroimidazo[1,2-a]pyridin-3-yl)-5-methyl-pyrimidin-2-yl]amino]-3-methoxy-phenyl]piperazin-1-yl]ethanol]
18	COc1cc(N2CC3CN(C(=O)[C@@H](C)O)CC(C2)O3)ccc1Nc1ncc(Cl)c(-c2cnc3c(F)cccn23)n1 [Example 214, (2R)-1-[3-[4-[[5-chloro-4-(8-fluoroimidazo[1,2-a]pyridin-3-yl)pyrimidin-2-yl]amino]-3-methoxy-phenyl]-9-oxa-3,7-diazabicyclo[3.3.1]nonan-7-yl]-2-hydroxy-propan-1-one]
26	COc1cc(C2CCN(C(=O)CO)CC2)ccc1Nc1ncc(C)c(-c2cnc3c(F)cccn23)n1 [Example 198, 1-[4-[4-[[4-(8-fluoroimidazo[1,2-a]pyridin-3-yl)-5-methyl-pyrimidin-2-yl]amino]-3-methoxy-phenyl]-1-piperidyl]-2-hydroxy-ethanone]
11	COc1cc(N2CC(C)N(C(C)=O)C(C)C2)ccc1Nc1ncc(Cl)c(-c2cnc3ccccn23)n1 (stereo not drawn) [Example 3.31, 1-[4-[4-[(5-chloro-4-imidazo[1,2-a]pyridin-3-yl-pyrimidin-2-yl)amino]-3-methoxy-phenyl]-2,6-dimethyl-piperazin-1-yl]ethanone]
28	COc1cc(CN2CCC[C@H](O)C2)ccc1Nc1ncc(Cl)c(-c2cnc3ccccn23)n1 [Example 21.17, (3S)-1-[[4-[(5-chloro-4-imidazo[1,2-a]pyridin-3-yl-pyrimidin-2-yl)amino]-3-methoxy-phenyl]methyl]piperidin-3-ol]
32	COCCN(C)Cc1ccc(Nc2ncc(Cl)c(-c3cnc4ccccn34)n2)c(OC)c1 [Example 21.13, 5-chloro-4-imidazo[1,2-a]pyridin-3-yl-N-[2-methoxy-4-[(2-methoxyethyl-methyl-amino)methyl]phenyl]pyrimidin-2-amine]
65	COc1cc(OC[C@H]2CCCN2)ccc1Nc1ncc(F)c(-c2cnc3ccccn23)n1 [Example 87, 5-fluoro-4-imidazo[1,2-a]pyridin-3-yl-N-[2-methoxy-4-[[(2R)-pyrrolidin-2-yl]methoxy]phenyl]pyrimidin-2-amine]
36	CNCc1ccn2c(-c3nc(Nc4ccc(N5CCN(C(C)=O)CC5)cc4OC)ncc3Cl)cnc2c1 [Example 186, 1-[4-[4-[[5-chloro-4-[7-(methylaminomethyl)imidazo[1,2-a]pyridin-3-yl]pyrimidin-2-yl]amino]-3-methoxy-phenyl]piperazin-1-yl]ethanone]
16	COc1cc(OC2CN(CC(C)(C)O)C2)ccc1Nc1ncc(Cl)c(-c2cnc3ccccn23)n1 [Example 63, 1-[3-[4-[(5-chloro-4-imidazo[1,2-a]pyridin-3-yl-pyrimidin-2-yl)amino]-3-methoxy-phenoxy]azetidin-1-yl]-2-methyl-propan-2-ol]
90	COc1cc(N2CCN(C(C)=O)CC2)ccc1Nc1ncc(OC)c(-c2cnc3ccccn23)n1 [Example 92, 1-[4-[4-[(4-imidazo[1,2-a]pyridin-3-yl-5-methoxy-pyrimidin-2-yl)amino]-3-methoxy-phenyl]piperazin-1-yl]ethanone]
7	COc1cc(N2CCN(CCO)CC2)ccc1Nc1ncc(Cl)c(-c2cnc3ccc(F)cn23)n1 [Example 263, 2-[4-[4-[[5-chloro-4-(6-fluoroimidazo[1,2-a]pyridin-3-yl)pyrimidin-2-yl]amino]-3-methoxy-phenyl]piperazin-1-yl]ethanol]
10	COc1cc(N2CCN(CC(C)(C)O)CC2)ccc1Nc1ncc(Cl)c(-c2cnc3ccccn23)n1 [Example 52, 1-[4-[4-[(5-chloro-4-imidazo[1,2-a]pyridin-3-yl-pyrimidin-2-yl)amino]-3-methoxy-phenyl]piperazin-1-yl]-2-methyl-propan-2-ol]
7	COc1cc(N2CC3CNCC(C2)O3)ccc1Nc1ncc(Cl)c(-c2cnn3ccccc23)n1 [Example 149, 5-chloro-N-[2-methoxy-4-(9-oxa-3,7-diazabicyclo[3.3.1]nonan-7-yl)phenyl]-4-pyrazolo[1,5-a]pyridin-3-yl-pyrimidin-2-amine]
8	COc1cc(C2CN(C(=O)[C@@H](C)O)C2)ccc1Nc1ncc(Cl)c(-c2cnn3ccccc23)n1 [Example 135B]
58	COc1ccc(OC[C@H]2CCCN2C(C)=O)cc1Nc1ncc(Cl)c(-c2cnc3ccccn23)n1 [Example 17, 1-[(2R)-2-[[3-[(5-chloro-4-imidazo[1,2-a]pyridin-3-yl-pyrimidin-2-yl)amino]-4-methoxy-phenoxy]methyl]pyrrolidin-1-yl]ethanone]

IC50 [nM]	SMILES
6	COc1cc(C2CCN(C(=O)[C@H](C)OC)CC2)ccc1Nc1ncc(Cl)c(-c2cnc3ccccn23)n1 [Example 28.3, (2S)-1-[4-[4-[(5-chloro-4-imidazo[1,2-a]pyridin-3-yl-pyrimidin-2-yl)amino]-3-methoxy-phenyl]-1-piperidyl]-2-methoxy-propan-1-one]
22	COc1cc(N2CCNCC2)ccc1Nc1ncc(C)c(-c2cnc3ccccn23)n1 [Example 98, 4-imidazo[1,2-a]pyridin-3-yl-N-(2-methoxy-4-piperazin-1-yl-phenyl)-5-methyl-pyrimidin-2-amine]
5	COc1cc(N2CCN(C(=O)CO)CC2)ccc1Nc1ncc(Cl)c(-c2cnc3ccc(F)cn23)n1 [Example 249, 1-[4-[4-[[5-chloro-4-(6-fluoroimidazo[1,2-a]pyridin-3-yl)pyrimidin-2-yl]amino]-3-methoxy-phenyl]piperazin-1-yl]-2-hydroxy-ethanone]
10	COc1cc(C2CCCCN2C(C)=O)ccc1Nc1ncc(Cl)c(-c2cnc3ccccn23)n1 (stereo not drawn) [Example 3.25, 1-[2-[4-[(5-chloro-4-imidazo[1,2-a]pyridin-3-yl-pyrimidin-2-yl)amino]-3-methoxy-phenyl]-1-piperidyl]ethanone]
10	COc1cc(N2CC[C@@H](N)C2)ccc1Nc1ncc(Cl)c(-c2cnc3ccccn23)n1 [Example 71, N-[4-[(3R)-3-aminopyrrolidin-1-yl]-2-methoxy-phenyl]-5-chloro-4-imidazo[1,2-a]pyridin-3-yl-pyrimidin-2-amine]
16	COc1cc(C2CN(C(C)=O)C2)ccc1Nc1ncc(Cl)c(-c2cnc3ccccn23)n1 [Example 277, 1-[3-[4-[(5-chloro-4-imidazo[1,2-a]pyridin-3-yl-pyrimidin-2-yl)amino]-3-methoxy-phenyl]azetidin-1-yl]ethanone]
12	COc1cc(C2CCNCC2)ccc1Nc1ncc(F)c(-c2cnc3ccccn23)n1 [Example 86, 5-fluoro-4-imidazo[1,2-a]pyridin-3-yl-N-[2-methoxy-4-(4-piperidyl)phenyl]pyrimidin-2-amine]
33	COc1cc(C2CCOCC2)ccc1Nc1ncc(F)c(-c2cnc3ccccn23)n1 [Example 113, 5-fluoro-4-imidazo[1,2-a]pyridin-3-yl-N-(2-methoxy-4-tetrahydropyran-4-yl-phenyl)pyrimidin-2-amine]
9	COc1cc(N2CCN(C(=O)[C@@H](C)OC)CC2)ccc1Nc1ncc(Cl)c(-c2cnc3ccccn23)n1 [Example 25.5, (2R)-1-[4-[4-[(5-chloro-4-imidazo[1,2-a]pyridin-3-yl-pyrimidin-2-yl)amino]-3-methoxy-phenyl]piperazin-1-yl]-2-methoxy-propan-1-one]
28	COc1cc(CN2CCC(O)CC2)ccc1Nc1ncc(Cl)c(-c2cnc3ccccn23)n1 [Example 21.5, 1-[[4-[(5-chloro-4-imidazo[1,2-a]pyridin-3-yl-pyrimidin-2-yl)amino]-3-methoxy-phenyl]methyl]piperidin-4-ol]
7	COc1cc(C2CCNC(C)C2)ccc1Nc1ncc(Cl)c(-c2cnc3ccccn23)n1 (stereo not drawn) [Example 59.2, 5-chloro-4-imidazo[1,2-a]pyridin-3-yl-N-[2-methoxy-4-(2-methyl-4-piperidyl)phenyl]pyrimidin-2-amine]
5	COc1cc(N2CCN(C(=O)[C@@H](N)CCO)CC2)ccc1Nc1ncc(Cl)c(-c2cnc3ccccn23)n1 [Example 24.13, (2S)-2-amino-1-[4-[4-[(5-chloro-4-imidazo[1,2-a]pynidin-3-yl-pyrimidin-2-yl)amino]-3-methoxy-phenyl]piperazin-1-yl]-4-hydroxy-butan-1-one]
4	COc1cc(C2CCN(C(=O)[C@@H](C)O)CC2)ccc1Nc1ncc(Cl)c(-c2cnc3ccc(F)cn23)n1 [Example 246, (2R)-1-[4-[4-[[5-chloro-4-(6-fluoroimidazo[1,2-a]pyridin-3-yl)pyrimidin-2-yl]amino]-3-methoxyphenyl]-1-piperidyl]-2-hydroxy-propan-1-one]
18	COc1cc(N2CC[C@@H](NC(C)=O)C2)ccc1Nc1ncc(Cl)c(-c2cnc3ccccn23)n1 [Example 3.23, N-((3R)-1-(4-(5-chloro-4-(imidazo[1,2-a]pyridin-3-yl)pyrimidin-2-ylamino)-3-methoxyphenyl)pyrrolidin-3-yl)acetamide]
20	COc1cc(CN2CCN(CCO)CC2)ccc1Nc1ncc(Cl)c(-c2cnc3ccccn23)n1 [Example 21.8, 2-[4-[[4-[(5-chloro-4-imidazo[1,2-a]pyridin-3-yl-pyrimidin-2-yl)amino]-3-methoxy-phenyl]methyl]piperazin-1-yl]ethanol]
19	COc1cc(OC2CN(C[C@@H](C)O)C2)ccc1Nc1ncc(Cl)c(-c2cnc3ccccn23)n1 [Example 62, (2R)-1-[3-[4-[(5-chloro-4-imidazo[1,2-a]pyridin-3-yl-pyrimidin-2-yl)amino]-3-methoxy-phenoxy]azetidin-1-yl]propan-2-ol]
